For test [1], the target named is T1, DDR1 (Homo sapiens, UniProt Q08345). Put plainly: DDR1 binding assay (LanthaScreen Europium Kinase Binding assay). Set-up: purchased Carna Biosciences. The following applies: binding assay, 5 nM DDR1, 20 nM Kinase Tracer 178; Ki from IC50 by Cheng-Prusoff; read-out: Ki DDR1. Put shortly: (§1)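 Compounds incubated 1 h at room temperature with 5 nM kinase, Kinase Tracer 178 (20 nM for DDR1, 10 nM for DDR2) and 2 nM Eu-anti-GST antibody in pH 7.5 HEPES/MgCl2/EGTA/BRIJ35 buffer. TR-FRET 665/615 nm ratio read after 340 nm excitation; IC50 from 4-parameter fit, converted to Ki by Cheng-Prusoff.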
T1 sequence (Q08345 19-913): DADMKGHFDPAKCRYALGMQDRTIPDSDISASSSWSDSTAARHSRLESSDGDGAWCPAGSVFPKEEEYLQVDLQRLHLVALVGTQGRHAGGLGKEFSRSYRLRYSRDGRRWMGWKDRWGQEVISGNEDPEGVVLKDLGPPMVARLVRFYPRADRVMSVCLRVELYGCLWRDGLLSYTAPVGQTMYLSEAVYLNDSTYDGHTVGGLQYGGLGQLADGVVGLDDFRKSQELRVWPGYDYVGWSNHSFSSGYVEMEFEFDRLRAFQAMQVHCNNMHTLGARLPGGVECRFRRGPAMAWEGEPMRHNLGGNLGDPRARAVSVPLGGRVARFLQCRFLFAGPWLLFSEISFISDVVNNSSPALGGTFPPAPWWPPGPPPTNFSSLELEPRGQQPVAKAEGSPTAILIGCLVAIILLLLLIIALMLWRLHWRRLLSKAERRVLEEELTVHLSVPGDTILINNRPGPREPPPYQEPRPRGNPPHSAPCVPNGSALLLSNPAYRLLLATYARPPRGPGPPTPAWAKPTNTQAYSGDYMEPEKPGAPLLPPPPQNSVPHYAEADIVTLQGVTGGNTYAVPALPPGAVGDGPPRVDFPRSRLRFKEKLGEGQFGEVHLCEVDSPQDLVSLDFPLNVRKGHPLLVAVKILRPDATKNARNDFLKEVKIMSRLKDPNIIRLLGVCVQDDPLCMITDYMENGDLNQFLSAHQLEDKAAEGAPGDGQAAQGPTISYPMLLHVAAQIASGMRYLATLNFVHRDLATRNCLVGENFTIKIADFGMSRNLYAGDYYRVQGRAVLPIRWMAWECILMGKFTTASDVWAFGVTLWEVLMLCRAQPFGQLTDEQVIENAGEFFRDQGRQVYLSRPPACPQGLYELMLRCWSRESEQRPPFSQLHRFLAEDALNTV

The next test addresses T2, DDR2 (Homo sapiens, UniProt Q16832).
T2 sequence (Q16832 22-855): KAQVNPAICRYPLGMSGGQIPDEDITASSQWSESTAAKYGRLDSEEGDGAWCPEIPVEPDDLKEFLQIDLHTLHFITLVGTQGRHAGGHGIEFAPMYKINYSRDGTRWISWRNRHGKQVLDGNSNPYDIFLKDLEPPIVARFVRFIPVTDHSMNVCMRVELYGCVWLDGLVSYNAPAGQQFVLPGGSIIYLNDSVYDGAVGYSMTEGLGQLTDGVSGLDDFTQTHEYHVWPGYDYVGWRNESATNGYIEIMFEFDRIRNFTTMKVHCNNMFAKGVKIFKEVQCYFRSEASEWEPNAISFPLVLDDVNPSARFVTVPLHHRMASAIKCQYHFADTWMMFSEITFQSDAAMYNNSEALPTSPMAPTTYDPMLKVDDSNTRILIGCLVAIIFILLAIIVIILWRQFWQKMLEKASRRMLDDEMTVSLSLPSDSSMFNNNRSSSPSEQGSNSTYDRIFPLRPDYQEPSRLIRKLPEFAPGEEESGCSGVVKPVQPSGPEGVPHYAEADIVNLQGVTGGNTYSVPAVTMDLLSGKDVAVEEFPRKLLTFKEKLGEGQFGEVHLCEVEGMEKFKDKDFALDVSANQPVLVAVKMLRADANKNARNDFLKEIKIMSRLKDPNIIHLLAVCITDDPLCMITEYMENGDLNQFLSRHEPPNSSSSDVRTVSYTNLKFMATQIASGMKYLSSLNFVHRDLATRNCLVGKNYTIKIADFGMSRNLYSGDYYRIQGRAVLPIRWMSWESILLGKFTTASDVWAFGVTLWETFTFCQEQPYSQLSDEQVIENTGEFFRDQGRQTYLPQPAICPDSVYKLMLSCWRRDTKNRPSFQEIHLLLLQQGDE
In words: DDR2 binding assay (LanthaScreen Europium Kinase Binding assay). Details: purchased Life Technologies. To be noted: binding assay, 5 nM DDR2, 10 nM Kinase Tracer 178; Ki from IC50 by Cheng-Prusoff; read-out: Ki DDR2. An outline of the steps: as §1
On the technique in general: In TR-FRET formats the signal depends on donor and acceptor labels being close together.

Test [2] addresses T1, DDR1. Put plainly: DDR1 cell based assay (PathHunter U2OS DDR1 assay). Set-up: host or cells: U2OS-DDR1 (PathHunter). The following applies: U2OS-DDR1 cells, bovine Type II Collagen 20 μg/ml. An outline of the steps:
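U2OS-DDR1 PathHunter cells preincubated 30 min with compound, then stimulated overnight at 37 °C with 20 μg/ml bovine type II collagen. Luminescent complementation signal read after 1 h detection at room temperature; normalized to vehicle (0%) and collagen-only (100%) controls, IC50 from variable-slope sigmoidal fit.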

Molecules are shown by their SMILES.

A word on the Ki: it is a dissociation constant, usually derived from enzyme kinetics or from competition with a known ligand. As a reminder, the IC50 is the point on the concentration scale where inhibition reaches its midpoint. A higher IC50 goes with weaker potency in that assay. With `CC1c2scc(C(=O)Nc3cc(C(C)(C)C)nn3C)c2CCN1C(=O)c1cnc2ccccn12` (stereo not drawn) [Example 99, N-(3-(tert-butyl)-1-methyl-1H-pyrazol-5-yl)-6-(imidazo[1,2-a]pyridine-3-carbonyl)-7-methyl-4,5,6,7-tetrahydrothieno[2,3-c]pyridine-3-carboxamide], the Ki at DDR1 [1] was less than 25 nM; on DDR2 it was 50 to 80 nM. At DDR1 [2], this compound came in with an IC50 of 25 to 50 nM.
For `O=C(Nc1cncc(C(F)(F)F)c1)c1csc2c1CCN(C(=O)c1cnn3cccnc13)C2` [Example 109, 6-(pyrazolo[1,5-a]pyrimidine-3-carbonyl)-N-(5-(trifluoromethyl)pyridin-3-yl)-4,5,6,7-tetrahydrothieno[2,3-c]pyridine-3-carboxamide] the same measures were less than 25 nM, less than 25 nM and 25 to 50 nM.
For `O=C(Nc1cncc(C(F)(F)F)c1)c1csc2c1CCN(C(=O)c1cnc3n1CCOC3)C2` [Example 110, 6-(5,6-dihydro-8H-imidazo[2,1-c][1,4]oxazine-3-carbonyl)-N-(5-(trifluoromethyl)pyridin-3-yl)-4,5,6,7-tetrahydrothieno[2,3-c]pyridine-3-carboxamide] the same measures were less than 25 nM, less than 25 nM and 25 to 50 nM.
For `O=C(Nc1cncc(C(F)(F)F)c1)c1csc2c1CCN(C(=O)c1cnc3n1CCCC3)C2` [Example 111, 6-(5,6,7,8-tetrahydroimidazo[1,2-a]pyridine-3-carbonyl)-N-(5-(trifluoromethyl)pyridin-3-yl)-4,5,6,7-tetrahydrothieno[2,3-c]pyridine-3-carboxamide] the same measures were less than 25 nM, less than 25 nM and 50 to 80 nM.
As to `CC(C)(C)c1cc(NC(=O)c2csc3c2CCN(C(=O)c2cnc4n2CCOC4)C3)on1` [Example 112, N-(3-(tert-butyl)isoxazol-5-yl)-6-(5,6-dihydro-8H-imidazo[2,1-c][1,4]oxazine-3-carbonyl)-4,5,6,7-tetrahydrothieno[2,3-c]pyridine-3-carboxamide], the Ki at DDR1 [1] and at DDR2 was less than 25 nM each time. The same compound registered an IC50 at DDR1 [2] of 25 to 50 nM.
In the case of `CC(C)(C)c1cc(NC(=O)c2csc3c2CCN(C(=O)c2cnn4ccncc24)C3)on1` [Example 113, N-(3-(tert-butyl)isoxazol-5-yl)-6-(pyrazolo[1,5-a]pyrazine-3-carbonyl)-4,5,6,7-tetrahydrothieno[2,3-c]pyridine-3-carboxamide], the Ki on DDR1 [1] and at DDR2 was less than 25 nM in each case. The IC50 against DDR1 [2] is 25 to 50 nM.
Turning to `Cn1nc(C2(C(F)(F)F)CC2)cc1NC(=O)c1csc2c1CCN(C(=O)c1cnc3ccccn13)C2` [Example 114, 6-(imidazo[1,2-a]pyridine-3-carbonyl)-N-(1-methyl-3-(1-(trifluoromethyl)cyclopropyl)-1H-pyrazol-5-yl)-4,5,6,7-tetrahydrothieno[2,3-c]pyridine-3-carboxamide], the inhibition constant (Ki) on DDR1 [1] and at DDR2 was less than 25 nM each time. The same compound registered an IC50 at DDR1 [2] of 50 to 80 nM.
With `CC(F)(F)c1cncc(NC(=O)c2csc3c2CCN(C(=O)c2cnc4ccccn24)C3)c1` [Example 115, N-(5-(1,1-difluoroethyl)pyridin-3-yl)-6-(imidazo[1,2-a]pyridine-3-carbonyl)-4,5,6,7-tetrahydrothieno[2,3-c]pyridine-3-carboxamide], the Ki at DDR1 [1] and on DDR2 was less than 25 nM in each case. This compound also displayed a 50% inhibitory concentration (IC50) on DDR1 [2] of 50 to 80 nM.
Take `Cn1nc(NC(=O)c2csc3c2CCN(C(=O)c2cnn4ccncc24)C3)cc1C(C)(C)C` [Example 116, N-(5-(tert-butyl)-1-methyl-1H-pyrazol-3-yl)-6-(pyrazolo[1,5-a]pyrazine-3-carbonyl)-4,5,6,7-tetrahydrothieno[2,3-c]pyridine-3-carboxamide]: the inhibition constant (Ki) on DDR1 [1] and at DDR2 was less than 25 nM in each case. Besides, the IC50 against DDR1 [2] was 25 to 50 nM.
`CC(C)(C)c1cncc(NC(=O)c2csc3c2CCN(C(=O)c2cnc4ccccn24)C3)c1` [Example 117, N-(5-(tert-butyl)pyridin-3-yl)-6-(imidazo[1,2-a]pyridine-3-carbonyl)-4,5,6,7-tetrahydrothieno[2,3-c]pyridine-3-carboxamide]: the Ki at DDR1 [1] and at DDR2 was less than 25 nM throughout. The IC50 against DDR1 [2] was less than 25 nM.
`O=C(Nc1cncc(OC(F)F)c1)c1csc2c1CCN(C(=O)c1cnc3ccccn13)C2` [Example 118, N-(5-(difluoromethoxy)pyridin-3-yl)-6-(imidazo[1,2-a]pyridine-3-carbonyl)-4,5,6,7-tetrahydrothieno[2,3-c]pyridine-3-carboxamide]: the inhibition constant (Ki) on DDR1 [1] and on DDR2 was less than 25 nM throughout. At DDR1 [2], this compound returned a half-inhibitory concentration (IC50) of 25 to 50 nM.
As to `CCC(C)(C)c1cc(NC(=O)c2csc3c2CCN(C(=O)c2cnc4ccccn24)C3)on1` [Example 119, 6-(imidazo[1,2-a]pyridine-3-carbonyl)-N-(3-(tert-pentyl)isoxazol-5-yl)-4,5,6,7-tetrahydrothieno[2,3-c]pyridine-3-carboxamide], the Ki on DDR1 [1] and on DDR2 was less than 25 nM each time. For the same compound, at DDR1 [2], the IC50 lay in the range of 25 to 50 nM.
For `O=C(Nc1cncc(C(F)(F)F)c1)c1csc2c1CCN(C(=O)c1cnc3n1CCCN3)C2` [Example 120, 6-(5,6,7,8-tetrahydroimidazo[1,2-a]pyrimidine-3-carbonyl)-N-(5-(trifluoromethyl)pyridin-3-yl)-4,5,6,7-tetrahydrothieno[2,3-c]pyridine-3-carboxamide], the Ki on DDR1 [1] and at DDR2 was less than 25 nM in each case. On DDR1 [2], this compound showed an IC50 of 50 to 80 nM.
For the compound `COc1ncc(NC(=O)c2csc3c2CCN(C(=O)c2cnn4ccncc24)C3)cc1C(F)(F)F` [Example 121, N-(6-methoxy-5-(trifluoromethyl)pyridin-3-yl)-6-(pyrazolo[1,5-a]pyrazine-3-carbonyl)-4,5,6,7-tetrahydrothieno[2,3-c]pyridine-3-carboxamide], the inhibition constant (Ki) on DDR1 [1] and at DDR2 was less than 25 nM each time. Further, on DDR1 [2], the IC50 was in the range of 50 to 80 nM.
As for `CC(F)(F)c1cncc(NC(=O)c2csc3c2CCN(C(=O)c2cnn4ccncc24)C3)c1` [Example 122, N-(5-(1,1-difluoroethyl)pyridin-3-yl)-6-(pyrazolo[1,5-a]pyrazine-3-carbonyl)-4,5,6,7-tetrahydrothieno[2,3-c]pyridine-3-carboxamide], the Ki on DDR1 [1] and at DDR2 was less than 25 nM in each case. On DDR1 [2], this compound gave an IC50 of 50 to 80 nM.
With `CC(C)(C)c1cncc(NC(=O)c2csc3c2CCN(C(=O)c2cnn4ccncc24)C3)c1` [Example 123, N-(5-(tert-butyl)pyridin-3-yl)-6-(pyrazolo[1,5-a]pyrazine-3-carbonyl)-4,5,6,7-tetrahydrothieno[2,3-c]pyridine-3-carboxamide], the Ki at DDR1 [1] and at DDR2 was less than 25 nM in each case. For the same compound, the IC50 on DDR1 [2] was in the range of 50 to 80 nM.
For the compound `O=C(Nc1cncc(C(F)(F)F)c1)c1csc2c1CCN(C(=O)c1cnn3ccccc13)C2` [Example 124, 6-(pyrazolo[1,5-a]pyridine-3-carbonyl)-N-(5-(trifluoromethyl)pyridin-3-yl)-4,5,6,7-tetrahydrothieno[2,3-c]pyridine-3-carboxamide], the inhibition constant Ki at DDR1 [1] and on DDR2 was less than 25 nM each time. At DDR1 [2], this compound displayed an IC50 of less than 25 nM.
Consider `O=C(Nc1cncc(OC(F)F)c1)c1csc2c1CCN(C(=O)c1cnn3ccncc13)C2` [Example 125, N-(5-(difluoromethoxy)pyridin-3-yl)-6-(pyrazolo[1,5-a]pyrazine-3-carbonyl)-4,5,6,7-tetrahydrothieno[2,3-c]pyridine-3-carboxamide], for which the inhibition constant (Ki) on DDR1 [1] and at DDR2 was less than 25 nM in each case. The compound further registered an IC50 against DDR1 [2] of 25 to 50 nM.

Values taken from patent US20240391936A1, “TETRAHYDROTHIENO PYRIDINE DERIVATIVES AS DDRS INHIBITORS” (CHIESI FARMACEUTICI S.P.A., priority 2021, published 2024).
